We go through two compounds from article PMC5256054 (Iranian Journal of Parasitology, 2016).

The subject of assay [1] is P. falciparum strain NF54. To be noted: read-out: IC50, P. falciparum strain NF54; erythrocytic stages in vitro; ref [8]; cited from earlier work.
The next assay relates to P. falciparum strain K1. To be noted: read-out: IC50, P. falciparum strain K1; erythrocytic stages in vitro; ref [8]; cited from earlier work.
Assay [2] relates to P. falciparum 3D7 chloroquine (CQ) sensitive strain. Nature of the assay: In vitro antiplasmodial test, Giemsa-stained smear parasitemia count. The class given is cell-based. To be noted: Plasmodium falciparum, 3D7, 24 h, read-out: P. falciparum IC50.

Turning to `COc1cc(C=C2Oc3cc(OC(C)=O)cc(OC(C)=O)c3C2=O)cc(OC)c1OC(C)=O` [4,6,4′-triacetyl-3′,5′-dimethoxy-2-aurone], the IC50 in assay [1] was 180 nM; with P. falciparum strain K1, 7 nM. Consider `CCN(CC)CCCC(C)Nc1ccnc2cc(Cl)ccc12` (stereo not drawn) [CQ, Chloroquine], for which, in assay [2], the IC50 turned out to be 775 nM.
